# Results as given in US20230018423A1, “BENZIMIDAZOLE DERIVATIVES FOR TREATMENT AND/OR PREVENTION OF DISEASES AND DISORDERS MEDIATED BY NLRP3” (YODA PHARMACEUTICALS INC., priority 2021, published 2023).
# Assays:
# TgM83 mice [1] = test: Open field task (locomotion activity) in TgM83 mouse model; assay type: in vivo
# TgM83 mice [2] = test: Rotarod task (motor coordination) in TgM83 mouse model; assay type: in vivo
# IL-1β = test: Inflammation cytokine ELISA in the cerebellum of TgM83 mice: IL-1β; assay type: in vivo, mouse; conditions: 30 mg/kg oral gavage, sacrificed after 20 minutes, P<0.05, FIG. 5A
# Text: (§1) To characterize the inflammatory response after RS-D7 treatment, the level of inflammation cytokines, including interleukin-1 beta (IL-1β), interleukin-6 (IL-6), and Tumor Necrosis Factor-α (TNF-α), were examined in the cerebellum of male TgM83 and WT littermate mice (n=5 each) using enzyme-linked immunosorbent assay (ELISA). All the animals were sacrificed after 20-minutes RS-D7 treatment and the tissue samples were taken from […] of the mouse brain from male WT littermates, TgM83 mice and TgM83 mice with RS-D7 treatment (30 mg/kg, P.O.). These samples were dissected on ice and then stored at −80° C. before use. The ELISA experiment was performed using commercial kits for IL-1β (88-7013, Invitrogen, USA), IL-6 (88-7064, Invitrogen, USA) and TNF-α (88-7324, Invitrogen, USA). Procedures were followed according to manufactures protocols. Standards and samples were run in triplicates. OD values were read at 450 nm using a microplate reader (ThermoFisher Scientific, USA). Calculation of concentrations were done according to manufactures protocol using standard curve methods.
# (§2) All of the data are presented as the mean+SE of the mean (SEM). The data was analyzed with one-way ANOVA in behavioral results. A post-hoc analysis was performed with Fisher's LSD test when F values reaching significant difference. […]
# IL-6 = test: Inflammation cytokine ELISA in the cerebellum of TgM83 mice: IL-6; assay type: in vivo, mouse; conditions: 30 mg/kg oral gavage, sacrificed after 20 minutes, P<0.05, FIG. 5B
# Text: as §1, §2
# TNF-α = test: Inflammation cytokine ELISA in the cerebellum of TgM83 mice: TNF-α; assay type: in vivo, mouse; conditions: 30 mg/kg oral gavage, sacrificed after 20 minutes, P<0.05, FIG. 5C
# Text: as §1, §2
# NLRP3 inflammasome [3] = target: T1, NLRP3 inflammasome (Homo sapiens, UniProt Q96P20); test: NLRP3 inflammasome assay, IL-1β ELISA in LPS- and ATP-treated THP-1 cells; conditions: 50 ng/mL LPS + 5 mM ATP, compared to the LPS+ATP group, MCC950 1 uM, RS-D7 0.1-5 uM, others 0.2-5 uM, FIG. 2A
# Experimental: (§3) The assays were conducted using Human promonocytic leukemia THP-1 cells.
# (§4) Human promonocytic leukemia THP-1 cells were cultured in RPMI and treated with Phorbol 12-myristate 13-acetate (PMA). […] The supernatant of PMA-differentiated THP-1 cells was collected at given time points after stimulation, and IL-1β level in cell culture supernatant was determined using IL-1 beta Human Uncoated ELISA Kit (Invitrogen). Supernatants and cell lysate were also evaluated by immunoblotting methods. The immunoreactive signals were developed using Immobilon Crescendo Western HRP substrate and the digitized image of the membrane was detected by ImageQuant LAS 4000mini (GE) according to the manufacturer's instructions.
# NLRP3 inflammasome [4] = target: T1, NLRP3 inflammasome; test: NLRP3 inflammasome assay, IL-1β ELISA in LPS- and MSU-treated THP-1 cells; conditions: 50 ng/mL LPS + 400 ug/ml MSU, compared to the LPS+MSU group, RS-D7 0.1-5 uM, others 0.2-5 uM, FIG. 2B
# Experimental: as §3, §4
# NLRP3 inflammasome [5] = target: T1, NLRP3 inflammasome; test: NLRP3 inflammasome assay, western blot (immunoblotting) of LPS+MSU-treated PMA-primed THP-1 cells; conditions: MCC950 1 uM, RS-D7 0.1, 1 and 5 uM, FIG. 1
# Experimental: as §3, §4
# T1 sequence (Q96P20 whole entry): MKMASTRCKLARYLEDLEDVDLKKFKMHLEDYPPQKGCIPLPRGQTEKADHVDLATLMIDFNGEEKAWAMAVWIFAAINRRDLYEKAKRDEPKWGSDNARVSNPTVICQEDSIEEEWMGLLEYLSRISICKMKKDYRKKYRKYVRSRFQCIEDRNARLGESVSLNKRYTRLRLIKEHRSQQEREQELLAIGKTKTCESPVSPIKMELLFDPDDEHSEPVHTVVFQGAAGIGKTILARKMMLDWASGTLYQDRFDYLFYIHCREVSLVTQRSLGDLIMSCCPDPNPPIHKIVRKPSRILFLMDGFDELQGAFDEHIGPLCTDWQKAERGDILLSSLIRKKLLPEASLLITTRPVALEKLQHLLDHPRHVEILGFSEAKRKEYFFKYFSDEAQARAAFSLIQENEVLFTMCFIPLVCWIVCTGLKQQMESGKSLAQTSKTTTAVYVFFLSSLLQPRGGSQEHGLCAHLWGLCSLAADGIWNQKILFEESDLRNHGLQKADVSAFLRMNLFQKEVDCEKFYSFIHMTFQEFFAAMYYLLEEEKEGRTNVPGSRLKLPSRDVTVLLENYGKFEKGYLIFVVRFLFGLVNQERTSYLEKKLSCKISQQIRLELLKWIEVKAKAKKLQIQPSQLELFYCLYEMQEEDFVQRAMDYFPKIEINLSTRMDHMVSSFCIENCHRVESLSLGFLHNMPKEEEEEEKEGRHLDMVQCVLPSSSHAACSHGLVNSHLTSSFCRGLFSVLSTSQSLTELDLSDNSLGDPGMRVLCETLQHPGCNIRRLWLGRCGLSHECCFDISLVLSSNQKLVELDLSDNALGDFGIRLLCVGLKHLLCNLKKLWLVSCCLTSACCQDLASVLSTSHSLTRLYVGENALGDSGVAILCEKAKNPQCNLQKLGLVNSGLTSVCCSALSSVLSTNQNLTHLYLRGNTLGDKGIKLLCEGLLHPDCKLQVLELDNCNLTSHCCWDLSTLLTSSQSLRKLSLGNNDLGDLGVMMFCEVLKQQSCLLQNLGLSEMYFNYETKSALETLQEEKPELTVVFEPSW
IL-1β level in cell culture supernatant (ELISA) (NLRP3 inflammasome [3]),IL-1β level in cell culture supernatant (ELISA) (NLRP3 inflammasome [4]),expression of IL-1β (western blot) (NLRP3 inflammasome [5]),expression of caspase-1 (western blot) (NLRP3 inflammasome [5]),SMILES,"increase of distance moved versus TgM83 vehicle mice (rescue of hypolocomotion) (TgM83 mice [1]; 30 mg/kg oral gavage, one hour, P<0.05)","total distance moved in the open field test (TgM83 mice [1]; 12-month-old, single dose 30 mg/kg PO, 1-hour period, mean±sem, TgM83 vehicle 15,472±942, WT 21,552±1,269)","prolonging of the falling latency versus TgM83 vehicle mice (TgM83 mice [2]; 30 mg/kg oral gavage, P<0.05)","falling latency on the rotarod (TgM83 mice [2]; single dose 30 mg/kg PO, accelerating 4-40 rpm, mean±sem, TgM83 vehicle 55.3±10.4, WT 99.5±7.5)",IL-1β level in the cerebellum (ELISA) (IL-1β),IL-6 level in the cerebellum (ELISA) (IL-6),TNF-α level in the cerebellum (ELISA) (TNF-α)
significantly lower levels,significantly lower levels,dose-dependent inhibition,dose-dependent inhibition,"COc1c(C)cnc(C[S+]([O-])c2nc3ccc(O)cc3[nH]2)c1C (stereo not drawn) [RS-D7, 5-O-Desmethyl-Omeprazole]","5,007 cm","20,479±730 cm",76.8 s,132.1 ± 16.1 s,significantly inhibit the overexpression,significantly inhibit the overexpression,significantly inhibit the overexpression
significantly lower levels,significantly lower levels,,,"COc1c(C)cnc(CSc2nc3cc(C(=O)O)ccc3n2CCC2=CCCCC2)c1C [compound 12083, 1-(2-(cyclohex-1-en-1-yl)ethyl)-2-(((4-methoxy-3,5-dimethylpyridin-2-yl)methyl)thio)-1H-benzo[d]imidazole-5-carboxylic acid]",,,,,,,

SMILES,IL-1β level in cell culture supernatant (ELISA) (NLRP3 inflammasome [3]),IL-1β level in cell culture supernatant (ELISA) (NLRP3 inflammasome [4]),expression of IL-1β (western blot) (NLRP3 inflammasome [5]),expression of caspase-1 (western blot) (NLRP3 inflammasome [5]),"increase of distance moved versus TgM83 vehicle mice (rescue of hypolocomotion) (TgM83 mice [1]; 30 mg/kg oral gavage, one hour, P<0.05)","total distance moved in the open field test (TgM83 mice [1]; 12-month-old, single dose 30 mg/kg PO, 1-hour period, mean±sem, TgM83 vehicle 15,472±942, WT 21,552±1,269)","prolonging of the falling latency versus TgM83 vehicle mice (TgM83 mice [2]; 30 mg/kg oral gavage, P<0.05)","falling latency on the rotarod (TgM83 mice [2]; single dose 30 mg/kg PO, accelerating 4-40 rpm, mean±sem, TgM83 vehicle 55.3±10.4, WT 99.5±7.5)",IL-1β level in the cerebellum (ELISA) (IL-1β),IL-6 level in the cerebellum (ELISA) (IL-6),TNF-α level in the cerebellum (ELISA) (TNF-α)
"COc1c(C)cnc(CSc2nc3cc(OC(=O)CNC(=O)OC(C)(C)C)ccc3[nH]2)c1C [compound 12093, 2-(((4-methoxy-3,5-dimethylpyridin-2-yl)methyl)thio)-1H-benzo[d]imidazol-5-yl (tert-butoxycarbonyl)glycinate]",significantly lower levels,significantly lower levels,,,,,,,,,
